Measurements taken from ChEMBL document CHEMBL5715954, “Silencing c-Myc translation as a therapeutic strategy through targeting PI3Kδ and CK1ε in hematological malignancies” (Blood, 2017).

How the values were obtained:
Set-up in all cases: scale not given: the % may be the effect or the level left
[1] = molecular target: Mitogen-activated protein kinase 14 (Homo sapiens) (UniProt Q16539); test: Inhibition of human P38a assessed as enzyme activity at 1 uM using myelin basic protein as substrate preincubated for 20 mins followed by [gamma-33P]-ATP addition and measured after 120 mins by radiometric Hot-SpotSM Kinase assay relative to control
[2] = molecular target: T1, Mitogen-activated protein kinase kinase kinase 5 (Homo sapiens) (UniProt Q99683); test: Inhibition of human ASK1 assessed as enzyme activity at 1 uM using myelin basic protein as substrate preincubated for 20 mins followed by [gamma-33P]-ATP addition and measured after 120 mins by radiometric Hot-SpotSM Kinase assay relative to control
T1 sequence (whole entry): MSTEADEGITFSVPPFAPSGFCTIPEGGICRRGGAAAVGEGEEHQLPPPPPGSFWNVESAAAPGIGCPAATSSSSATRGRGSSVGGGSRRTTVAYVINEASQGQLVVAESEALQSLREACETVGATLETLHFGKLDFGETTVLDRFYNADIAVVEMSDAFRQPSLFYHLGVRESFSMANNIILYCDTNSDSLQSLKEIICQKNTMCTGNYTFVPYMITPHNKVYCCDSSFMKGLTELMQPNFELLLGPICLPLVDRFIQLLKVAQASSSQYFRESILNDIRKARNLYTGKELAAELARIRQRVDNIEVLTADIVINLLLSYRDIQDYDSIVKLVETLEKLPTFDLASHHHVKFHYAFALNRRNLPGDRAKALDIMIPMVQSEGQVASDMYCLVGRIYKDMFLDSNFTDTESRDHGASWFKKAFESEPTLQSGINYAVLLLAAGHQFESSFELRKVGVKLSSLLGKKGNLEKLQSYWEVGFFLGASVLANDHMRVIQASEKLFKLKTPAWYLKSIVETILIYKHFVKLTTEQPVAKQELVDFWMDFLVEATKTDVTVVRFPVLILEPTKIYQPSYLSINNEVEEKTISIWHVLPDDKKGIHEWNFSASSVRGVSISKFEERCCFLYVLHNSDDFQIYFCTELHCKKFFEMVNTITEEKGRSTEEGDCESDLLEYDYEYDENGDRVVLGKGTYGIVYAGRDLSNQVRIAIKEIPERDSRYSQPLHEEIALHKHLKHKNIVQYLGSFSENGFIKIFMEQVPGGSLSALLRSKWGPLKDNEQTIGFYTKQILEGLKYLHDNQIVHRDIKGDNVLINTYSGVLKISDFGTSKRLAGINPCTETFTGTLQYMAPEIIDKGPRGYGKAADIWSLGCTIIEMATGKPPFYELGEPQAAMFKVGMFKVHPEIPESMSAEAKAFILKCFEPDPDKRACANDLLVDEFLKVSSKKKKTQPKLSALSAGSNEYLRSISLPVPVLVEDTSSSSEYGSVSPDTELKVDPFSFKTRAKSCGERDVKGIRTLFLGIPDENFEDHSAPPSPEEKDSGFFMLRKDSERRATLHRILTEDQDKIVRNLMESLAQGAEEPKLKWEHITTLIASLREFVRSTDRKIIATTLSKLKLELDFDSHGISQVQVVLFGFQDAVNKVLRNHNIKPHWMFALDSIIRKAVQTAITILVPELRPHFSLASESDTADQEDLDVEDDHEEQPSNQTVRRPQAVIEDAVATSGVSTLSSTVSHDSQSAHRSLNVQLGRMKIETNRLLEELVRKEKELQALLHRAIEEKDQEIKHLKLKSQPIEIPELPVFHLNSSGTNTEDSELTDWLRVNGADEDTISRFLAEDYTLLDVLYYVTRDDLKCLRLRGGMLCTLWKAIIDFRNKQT

[3] = molecular target: Protein kinase C gamma type (Homo sapiens) (UniProt P05129); test: Inhibition of human PKCg assessed as enzyme activity at 1 uM using ERMRPRKRQGSVRRRV as substrate preincubated for 20 mins followed by [gamma-33P]-ATP addition and measured after 120 mins by radiometric Hot-SpotSM Kinase assay relative to control
[4] = molecular target: Serine/threonine-protein kinase PAK 6 (Homo sapiens) (UniProt Q9NQU5); test: Inhibition of human PAK6 assessed as enzyme activity at 1 uM using RRRLSFAEPG as substrate preincubated for 20 mins followed by [gamma-33P]-ATP addition and measured after 120 mins by radiometric Hot-SpotSM Kinase assay relative to control
[5] = molecular target: Insulin-like growth factor 1 receptor (Homo sapiens) (UniProt P08069); test: Inhibition of human IGF1R assessed as enzyme activity at 1 uM using KKKSPGEYVNIEFG as substrate preincubated for 20 mins followed by [gamma-33P]-ATP addition and measured after 120 mins by radiometric Hot-SpotSM Kinase assay relative to control
[6] = molecular target: High affinity nerve growth factor receptor (Homo sapiens) (UniProt P04629); test: Inhibition of human TRKA assessed as enzyme activity at 1 uM using poly[Glu:Tyr] (4:1) as substrate preincubated for 20 mins followed by [gamma-33P]-ATP addition and measured after 120 mins by radiometric Hot-SpotSM Kinase assay relative to control
[7] = molecular target: T2, NUAK family SNF1-like kinase 2 (Homo sapiens) (UniProt Q9H093); test: Inhibition of human SNARK assessed as enzyme activity at 1 uM using KKKVSRSGLYRSPSMPENLNRPR as substrate preincubated for 20 mins followed by [gamma-33P]-ATP addition and measured after 120 mins by radiometric Hot-SpotSM Kinase assay relative to control
T2 sequence (whole entry): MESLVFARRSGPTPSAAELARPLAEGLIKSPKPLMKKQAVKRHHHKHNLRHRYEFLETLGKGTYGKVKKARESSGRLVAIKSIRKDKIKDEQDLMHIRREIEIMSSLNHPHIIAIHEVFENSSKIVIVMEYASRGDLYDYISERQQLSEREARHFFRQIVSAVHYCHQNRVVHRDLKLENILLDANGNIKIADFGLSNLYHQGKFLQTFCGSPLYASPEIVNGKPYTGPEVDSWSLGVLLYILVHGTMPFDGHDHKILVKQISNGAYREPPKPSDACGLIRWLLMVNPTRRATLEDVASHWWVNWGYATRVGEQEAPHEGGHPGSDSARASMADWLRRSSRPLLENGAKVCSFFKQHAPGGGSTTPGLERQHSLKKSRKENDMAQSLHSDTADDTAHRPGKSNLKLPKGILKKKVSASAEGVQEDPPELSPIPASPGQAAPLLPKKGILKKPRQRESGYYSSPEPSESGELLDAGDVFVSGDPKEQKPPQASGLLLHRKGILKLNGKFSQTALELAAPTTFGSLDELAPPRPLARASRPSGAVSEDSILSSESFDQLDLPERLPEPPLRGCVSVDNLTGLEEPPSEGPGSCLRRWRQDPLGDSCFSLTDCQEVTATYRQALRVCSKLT

[8] = molecular target: Platelet-derived growth factor receptor beta (Homo sapiens) (UniProt P09619); test: Inhibition of human PDGFRb assessed as enzyme activity at 1 uM using poly[Glu:Tyr] (4:1) as substrate preincubated for 20 mins followed by [gamma-33P]-ATP addition and measured after 120 mins by radiometric Hot-SpotSM Kinase assay relative to control
Chain of Platelet-derived growth factor receptor beta (Homo sapiens) (P09619 whole entry): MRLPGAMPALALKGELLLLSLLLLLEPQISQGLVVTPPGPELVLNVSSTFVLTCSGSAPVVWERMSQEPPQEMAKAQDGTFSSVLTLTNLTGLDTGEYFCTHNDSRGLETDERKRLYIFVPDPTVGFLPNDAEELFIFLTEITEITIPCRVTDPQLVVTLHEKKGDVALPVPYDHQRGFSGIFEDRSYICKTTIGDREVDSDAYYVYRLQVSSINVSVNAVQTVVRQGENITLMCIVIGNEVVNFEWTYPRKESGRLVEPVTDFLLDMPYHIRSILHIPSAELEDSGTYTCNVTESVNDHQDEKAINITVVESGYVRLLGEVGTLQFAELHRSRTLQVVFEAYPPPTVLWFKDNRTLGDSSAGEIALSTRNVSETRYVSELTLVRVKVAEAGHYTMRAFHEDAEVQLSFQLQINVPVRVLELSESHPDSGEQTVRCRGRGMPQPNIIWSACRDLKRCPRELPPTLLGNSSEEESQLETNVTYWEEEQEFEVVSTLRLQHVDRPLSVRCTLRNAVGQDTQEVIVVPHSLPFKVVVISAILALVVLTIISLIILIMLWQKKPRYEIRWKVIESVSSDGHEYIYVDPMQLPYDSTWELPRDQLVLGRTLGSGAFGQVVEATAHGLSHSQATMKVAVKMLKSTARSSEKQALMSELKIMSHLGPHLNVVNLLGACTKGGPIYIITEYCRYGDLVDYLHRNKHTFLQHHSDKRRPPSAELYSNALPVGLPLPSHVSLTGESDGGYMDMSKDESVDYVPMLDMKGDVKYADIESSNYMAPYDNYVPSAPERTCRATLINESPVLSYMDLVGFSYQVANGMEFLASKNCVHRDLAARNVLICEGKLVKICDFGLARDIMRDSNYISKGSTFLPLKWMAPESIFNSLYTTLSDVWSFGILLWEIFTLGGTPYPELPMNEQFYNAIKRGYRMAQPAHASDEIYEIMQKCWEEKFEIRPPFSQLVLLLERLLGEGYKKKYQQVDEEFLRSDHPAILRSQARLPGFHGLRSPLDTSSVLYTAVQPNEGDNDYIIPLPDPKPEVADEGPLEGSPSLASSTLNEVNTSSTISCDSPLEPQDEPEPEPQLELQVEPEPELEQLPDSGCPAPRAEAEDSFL

Chain of Insulin-like growth factor 1 receptor (Homo sapiens) (P08069 31-736 limits assumed): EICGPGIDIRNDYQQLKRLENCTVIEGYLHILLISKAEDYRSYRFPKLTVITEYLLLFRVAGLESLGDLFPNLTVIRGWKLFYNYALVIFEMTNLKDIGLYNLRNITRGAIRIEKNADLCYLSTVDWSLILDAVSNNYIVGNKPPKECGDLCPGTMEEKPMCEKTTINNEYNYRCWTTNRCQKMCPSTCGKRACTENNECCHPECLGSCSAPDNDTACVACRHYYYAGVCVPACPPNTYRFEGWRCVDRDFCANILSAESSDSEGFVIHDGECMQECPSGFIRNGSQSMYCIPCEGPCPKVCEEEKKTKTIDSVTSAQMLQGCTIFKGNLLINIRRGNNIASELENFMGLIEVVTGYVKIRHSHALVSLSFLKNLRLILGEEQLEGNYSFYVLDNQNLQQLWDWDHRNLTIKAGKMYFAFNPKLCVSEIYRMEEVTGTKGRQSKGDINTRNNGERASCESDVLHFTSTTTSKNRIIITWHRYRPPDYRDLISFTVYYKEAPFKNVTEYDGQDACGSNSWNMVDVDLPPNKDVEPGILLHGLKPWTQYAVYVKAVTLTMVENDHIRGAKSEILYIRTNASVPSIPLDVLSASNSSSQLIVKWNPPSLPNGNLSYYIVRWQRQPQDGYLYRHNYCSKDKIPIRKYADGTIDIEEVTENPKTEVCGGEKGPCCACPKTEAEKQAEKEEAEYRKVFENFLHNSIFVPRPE
Chain of Insulin-like growth factor 1 receptor (Homo sapiens) (P08069 741-1367 limits assumed): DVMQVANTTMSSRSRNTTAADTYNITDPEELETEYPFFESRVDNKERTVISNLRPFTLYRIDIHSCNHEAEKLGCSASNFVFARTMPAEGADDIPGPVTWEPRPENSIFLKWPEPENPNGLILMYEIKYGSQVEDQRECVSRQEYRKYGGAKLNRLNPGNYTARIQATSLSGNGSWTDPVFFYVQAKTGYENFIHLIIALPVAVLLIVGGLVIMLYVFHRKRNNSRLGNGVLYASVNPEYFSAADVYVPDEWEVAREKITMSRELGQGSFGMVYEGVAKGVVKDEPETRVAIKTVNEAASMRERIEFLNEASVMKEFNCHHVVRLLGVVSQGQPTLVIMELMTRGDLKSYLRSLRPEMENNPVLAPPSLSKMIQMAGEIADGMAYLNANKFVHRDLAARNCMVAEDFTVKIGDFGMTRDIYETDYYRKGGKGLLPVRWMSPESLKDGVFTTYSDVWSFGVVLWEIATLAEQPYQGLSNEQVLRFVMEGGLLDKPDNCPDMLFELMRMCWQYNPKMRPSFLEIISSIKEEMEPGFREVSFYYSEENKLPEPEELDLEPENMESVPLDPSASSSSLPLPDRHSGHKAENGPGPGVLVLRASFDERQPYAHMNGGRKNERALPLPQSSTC
Chain of Serine/threonine-protein kinase PAK 6 (Homo sapiens) (Q9NQU5 whole entry, looked up): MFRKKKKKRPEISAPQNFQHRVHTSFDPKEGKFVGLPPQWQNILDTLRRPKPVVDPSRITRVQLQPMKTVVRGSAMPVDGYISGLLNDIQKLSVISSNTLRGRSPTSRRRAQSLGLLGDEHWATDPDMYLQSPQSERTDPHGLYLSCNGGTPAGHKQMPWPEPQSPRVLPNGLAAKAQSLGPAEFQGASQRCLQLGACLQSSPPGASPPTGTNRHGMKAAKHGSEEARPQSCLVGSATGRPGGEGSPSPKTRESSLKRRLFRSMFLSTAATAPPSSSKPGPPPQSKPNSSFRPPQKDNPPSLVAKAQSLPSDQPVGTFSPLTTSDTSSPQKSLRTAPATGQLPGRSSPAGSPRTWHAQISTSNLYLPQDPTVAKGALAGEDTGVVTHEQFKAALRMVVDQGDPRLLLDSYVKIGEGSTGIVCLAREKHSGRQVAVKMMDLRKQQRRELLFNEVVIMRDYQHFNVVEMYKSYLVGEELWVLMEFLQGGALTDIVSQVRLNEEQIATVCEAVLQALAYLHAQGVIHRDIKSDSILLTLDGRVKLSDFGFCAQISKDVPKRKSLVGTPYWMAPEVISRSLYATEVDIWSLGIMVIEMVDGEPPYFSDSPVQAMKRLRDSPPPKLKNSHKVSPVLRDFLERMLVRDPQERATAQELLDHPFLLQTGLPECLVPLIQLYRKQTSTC
Chain of Mitogen-activated protein kinase 14 (Homo sapiens) (Q16539 whole entry): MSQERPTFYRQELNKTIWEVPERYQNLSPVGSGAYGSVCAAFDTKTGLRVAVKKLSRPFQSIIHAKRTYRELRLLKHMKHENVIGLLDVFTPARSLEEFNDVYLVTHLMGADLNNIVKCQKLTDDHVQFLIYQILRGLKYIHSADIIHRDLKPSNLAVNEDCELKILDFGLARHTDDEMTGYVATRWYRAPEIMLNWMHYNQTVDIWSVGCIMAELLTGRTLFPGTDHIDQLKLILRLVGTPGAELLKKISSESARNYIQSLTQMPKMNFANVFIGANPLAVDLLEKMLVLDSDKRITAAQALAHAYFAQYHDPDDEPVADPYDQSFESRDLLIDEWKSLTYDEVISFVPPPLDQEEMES
Chain of High affinity nerve growth factor receptor (Homo sapiens) (P04629 33-796 limits assumed): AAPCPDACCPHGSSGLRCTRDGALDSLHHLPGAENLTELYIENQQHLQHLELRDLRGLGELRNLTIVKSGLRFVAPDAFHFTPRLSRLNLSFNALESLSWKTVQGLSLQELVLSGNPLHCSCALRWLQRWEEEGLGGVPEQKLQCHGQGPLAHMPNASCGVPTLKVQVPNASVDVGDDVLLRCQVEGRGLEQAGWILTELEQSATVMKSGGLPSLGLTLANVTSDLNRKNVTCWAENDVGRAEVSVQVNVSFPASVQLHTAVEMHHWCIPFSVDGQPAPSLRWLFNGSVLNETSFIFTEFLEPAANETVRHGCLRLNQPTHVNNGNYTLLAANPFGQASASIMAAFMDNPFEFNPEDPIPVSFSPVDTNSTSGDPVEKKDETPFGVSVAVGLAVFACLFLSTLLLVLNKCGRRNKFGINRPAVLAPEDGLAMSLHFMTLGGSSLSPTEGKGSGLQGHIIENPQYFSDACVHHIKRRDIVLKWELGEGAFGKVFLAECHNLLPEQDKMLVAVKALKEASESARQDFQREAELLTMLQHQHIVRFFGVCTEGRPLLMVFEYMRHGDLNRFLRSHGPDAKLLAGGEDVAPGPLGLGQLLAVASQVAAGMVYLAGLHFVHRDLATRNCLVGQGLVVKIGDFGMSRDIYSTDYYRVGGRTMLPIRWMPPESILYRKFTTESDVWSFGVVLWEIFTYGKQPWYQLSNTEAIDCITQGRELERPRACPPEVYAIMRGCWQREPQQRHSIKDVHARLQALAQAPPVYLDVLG

SMILES	Activity [1]	Activity [2]	Activity [3]	Activity [4]	Activity [5]	Activity [6]	Activity [7]	Activity [8]
C[C@H](Nc1ncnc2nc[nH]c12)c1cc2cccc(Cl)c2c(=O)n1-c1ccccc1	94.5%	97.7%	97.3%	99.5%	102%	87.3%	93.2%	97.8%
CC[C@H](Nc1ncnc2[nH]cnc12)c1nc2cccc(F)c2c(=O)n1-c1ccccc1	98.8%	102%	96%	102%	91.5%	91%	93.2%	102%
CC(C)Oc1ccc(-c2nn([C@@H](C)c3oc4ccc(F)cc4c(=O)c3-c3cccc(F)c3)c3ncnc(N)c23)cc1F [UMBRALISIB]	96.9%	98.4%	99.8%	97.2%	96.5%	89%	95.9%	104%
